The values below come from ChEMBL document CHEMBL1629662, “Antimicrobial activity of prulifloxacin tested against a worldwide collection of gastroenteritis-producing pathogens, including those causing traveler's diarrhea” (2009).

The assay has as its system Yersinia pseudotuberculosis. In words: Antibacterial activity against Yersinia pseudotuberculosis assessed as percent resistant isolates by broth microdilution method. In kind it is functional.
`C[C@H]1c2cccc(O)c2C(=O)C2=C(O)[C@]3(O)C(=O)C(C(N)=O)=C(O)[C@@H](N(C)C)[C@@H]3[C@@H](O)[C@@H]21.O` [DOXYCYCLINE]: the Activity worked out at 4.3%.

For the molecule `O=C(O)c1cn(C2CC2)c2cc(N3CCNCC3)c(F)cc2c1=O` [CIPROFLOXACIN], the Activity worked out at 0%.

As for `CCn1cc(C(=O)O)c(=O)c2ccc(C)nc21` [NALIDIXIC ACID], the Activity is on record as 6.5%.

As for `CC1(C)S[C@@H]2[C@H](NC(=O)[C@H](N)c3ccccc3)C(=O)N2[C@H]1C(=O)O` [AMPICILLIN], the Activity turned out to be 91.3%.

For the molecule `CC1Sc2c(C(=O)O)c(=O)c3cc(F)c(N4CCNCC4)cc3n21` (stereo not given) [ULIFLOXACIN], the Activity was 0%.
